Measurements taken from patent publication US6441038B1, “Treatment of fatigue, head injury and stroke” (Laxdale Limited, priority 1999, dated 2002).

Legend:
[1] = system: brain lesions / LC function; conditions: animal studies, literature; cited from earlier work
[2] = system: post-stroke depression and fatigue; assay: Case History No. 2: depression and fatigue after stroke; format: in vivo, human; conditions: person; antidepressant alone

| SMILES | effect on LC function and recovery of motor function after brain lesions [1] | effect on post-stroke depression and fatigue [2] |
| --- | --- | --- |
| CNCCCN1c2ccccc2CCc2ccccc21 [desipramine] | able to enhance |  |
| CNCCC(Oc1ccc(C(F)(F)F)cc1)c1ccccc1 (stereo not shown) [fluoxetine] |  | without much success |
| CN(C)CCCN1c2ccccc2CCc2ccccc21 [imipramine] |  | without much success |
| CN(CCCN1c2ccccc2CCc2ccccc21)CC(=O)c1ccc(Cl)cc1 [lofepramine] |  | without much success |
